Patent publication US12162888B2, “Carboxamides as ubiquitin-specific protease inhibitors” (Valo Early Discovery, Inc., priority 2018, dated 2024)

Each compound was assayed against T1, USP28 (His-tagged USP28-FL-mammalian) (Homo sapiens, UniProt Q96RU2) (assay: Ubiquitin-Rhodamine 110 Assay for USP28 Activity, Example A-1(a)). Conditions: Ubiquitin-Rhodamine 110 biochemical assay, read-out: USP28 A-1(a) IC50 range.
T1 construct: Expression of USP28 (1-1077)-TEV-6*His (pTT5 vector) was carried out in Expi293f cells; made in house; host or cells: Expi293F cells (pTT5 vector)
T1 sequence (Q96RU2 1-1077): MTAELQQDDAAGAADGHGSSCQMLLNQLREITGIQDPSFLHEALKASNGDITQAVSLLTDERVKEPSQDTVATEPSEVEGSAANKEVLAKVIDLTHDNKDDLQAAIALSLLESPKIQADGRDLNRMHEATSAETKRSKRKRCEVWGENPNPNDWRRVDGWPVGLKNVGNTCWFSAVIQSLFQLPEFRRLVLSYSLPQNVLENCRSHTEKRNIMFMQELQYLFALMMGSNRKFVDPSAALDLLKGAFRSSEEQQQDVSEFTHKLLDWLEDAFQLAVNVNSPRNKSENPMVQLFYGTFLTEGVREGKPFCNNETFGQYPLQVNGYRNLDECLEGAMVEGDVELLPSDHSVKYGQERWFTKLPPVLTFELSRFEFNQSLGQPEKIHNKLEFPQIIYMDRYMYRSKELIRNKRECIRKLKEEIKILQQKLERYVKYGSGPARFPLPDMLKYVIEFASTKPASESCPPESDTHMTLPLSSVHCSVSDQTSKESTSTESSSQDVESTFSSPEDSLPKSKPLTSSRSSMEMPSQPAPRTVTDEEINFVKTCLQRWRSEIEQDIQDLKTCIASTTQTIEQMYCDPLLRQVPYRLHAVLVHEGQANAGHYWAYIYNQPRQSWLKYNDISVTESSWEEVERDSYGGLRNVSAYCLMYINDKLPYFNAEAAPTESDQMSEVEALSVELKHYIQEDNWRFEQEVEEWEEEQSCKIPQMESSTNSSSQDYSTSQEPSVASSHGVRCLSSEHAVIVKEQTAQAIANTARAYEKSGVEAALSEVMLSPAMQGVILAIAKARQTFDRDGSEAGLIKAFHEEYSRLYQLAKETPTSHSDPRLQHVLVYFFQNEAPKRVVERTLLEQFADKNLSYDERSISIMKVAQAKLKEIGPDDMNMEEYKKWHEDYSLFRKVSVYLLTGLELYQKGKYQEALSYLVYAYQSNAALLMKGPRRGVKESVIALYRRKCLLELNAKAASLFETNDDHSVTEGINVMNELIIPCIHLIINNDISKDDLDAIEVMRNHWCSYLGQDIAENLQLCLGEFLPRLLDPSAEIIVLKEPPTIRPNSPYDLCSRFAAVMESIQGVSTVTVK
Type: biochemical
Procedure, shortened: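 Full-length His-tagged human USP28 (1-1077), expressed in Expi293F cells, was used at […] with 25 nM Ub-Rh110 (<<Km) in 20 mM Tris pH 8.0, 3 mM BME, 0.03% BGG and 0.01% Triton X-100. Compounds (25 μM-1.3 nM, 10-point) were preincubated with enzyme for 30 min, and the reaction ran 45 min at room temperature before a citric acid stop. Fluorescence was read at 485/535 nm, and IC50 came from 4-parameter fits of percent inhibition.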

Row | Compound | IC50
1 | 3-amino-N-[(6S)-2-[(3R,4S)-3-(methoxymethyl)-4-[(^2H3)methylamino]pyrrolidin-1-yl]-5,6,7,8-tetrahydroquinolin-6-yl]-6-methylthieno[2,3-b]pyridine-2-carboxamide [Example 487] | 200 to 2000 nM
2 | CN[C@@H]1CN(c2ccc3c(n2)CC[C@H](NC(=O)c2sc4nc(C)cnc4c2N)C3)C[C@@H]1OC [Example 497, 7-amino-N-[(6S)-2-[(3S,4R)-3-methoxy-4-(methylamino)pyrrolidin-1-yl]-5,6,7,8-tetrahydroquinolin-6-yl]-3-methylthieno[2,3-b]pyrazine-6-carboxamide] | 200 to 2000 nM
3 | Cc1cnc2c(N)c(C(=O)N[C@H]3CCc4nc(N5C[C@H](N)C6(C5)OCCO6)ccc4C3)sc2n1 [Example 498, 7-amino-N-[(6S)-2-[(9S)-9-amino-1,4-dioxa-7-azaspiro[4.4]nonan-7-yl]-5,6,7,8-tetrahydroquinolin-6-yl]-3-methylthieno[2,3-b]pyrazine-6-carboxamide] | 200 to 2000 nM
4 | COC[C@@H]1CN(c2ccc3c(n2)CC[C@H](NC(=O)c2sc4nc(C)c(F)cc4c2N)C3)C[C@@H]1N [Example 513, 3-amino-N-[(6S)-2-[(3R,4R)-3-amino-4-(methoxymethyl)pyrrolidin-1-yl]-5,6,7,8-tetrahydroquinolin-6-yl]-5-fluoro-6-methylthieno[2,3-b]pyridine-2-carboxamide] | 50 to 200 nM
5 | CN[C@H]1CN(c2ccc3c(n2)CC[C@H](NC(=O)c2sc4nc(C)ccc4c2N)C3)C[C@H]1COC [Example 488, 3-amino-N-[(6S)-2-[(3R,4R)-3-(methoxymethyl)-4-(methylamino)pyrrolidin-1-yl]-5,6,7,8-tetrahydroquinolin-6-yl]-6-methylthieno[2,3-b]pyridine-2-carboxamide] | 50 to 200 nM
6 | CO[C@@H]1CCCN(c2ccc3c(n2)CC[C@H](NC(=O)c2sc4nc(C)ccc4c2N)C3)C[C@H]1N [Example 493, 3-amino-N-[(6S)-2-[(3R,4R)-3-amino-4-methoxyazepan-1-yl]-5,6,7,8-tetrahydroquinolin-6-yl]-6-methylthieno[2,3-b]pyridine-2-carboxamide] | 1 to 50 nM
7 | CN[C@H]1CN(c2ccc3c(n2)CC[C@H](NC(=O)c2sc4nc(C)cnc4c2N)C3)C[C@H]1OC [Example 496, 7-amino-N-[(6S)-2-[(3R,4S)-3-methoxy-4-(methylamino)pyrrolidin-1-yl]-5,6,7,8-tetrahydroquinolin-6-yl]-3-methylthieno[2,3-b]pyrazine-6-carboxamide] | 200 to 2000 nM
8 | CO[C@H]1CN(c2ccc3c(n2)CC[C@H](NC(=O)c2sc4cnccc4c2N)C3)C[C@@H]1N [Example 504, 3-amino-N-[(6S)-2-[(3S,4S)-3-amino-4-methoxypyrrolidin-1-yl]-5,6,7,8-tetrahydroquinolin-6-yl]thieno[2,3-c]pyridine-2-carboxamide] | > 2000 nM
9 | CO[C@H](C)CO[C@H]1CN(c2ccc3c(n2)CC[C@H](NC(=O)c2sc4nc(C)ccc4c2N)C3)C[C@@H]1N [Example 482, 3-amino-N-[(6S)-2-[(3S,4S)-3-amino-4-[(2R)-2-methoxypropoxy]pyrrolidin-1-yl]-5,6,7,8-tetrahydroquinolin-6-yl]-6-methylthieno[2,3-b]pyridine-2-carboxamide] | 50 to 200 nM
10 | COCC(F)(F)[C@H]1CN(c2ccc3c(n2)CC[C@H](NC(=O)c2sc4nc(C)ccc4c2N)C3)C[C@@H]1N [Example 480, 3-amino-N-[(6S)-2-[(3R,4S)-3-amino-4-(1,1-difluoro-2-methoxyethyl)pyrrolidin-1-yl]-5,6,7,8-tetrahydroquinolin-6-yl]-6-methylthieno[2,3-b]pyridine-2-carboxamide] | 50 to 200 nM
11 | Cc1ccc2c(N)c(C(=O)N[C@H]3CCc4nc(N5C[C@H](N)CC(F)(F)C5)ccc4C3)sc2n1 [Example 519, 3-amino-N-[(6S)-2-[(5R)-5-amino-3,3-difluoropiperidin-1-yl]-5,6,7,8-tetrahydroquinolin-6-yl]-6-methylthieno[2,3-b]pyridine-2-carboxamide] | 1 to 50 nM
12 | Cc1ccc2c(N)c(C(=O)N[C@H]3CCc4nc(N5C[C@@H](COC(F)F)[C@@H](N)C5)ccc4C3)sc2n1 [Example 516, 3-amino-N-[(6S)-2-[(3R,4R)-3-amino-4-[(difluoromethoxy)methyl]pyrrolidin-1-yl]-5,6,7,8-tetrahydroquinolin-6-yl]-6-methylthieno[2,3-b]pyridine-2-carboxamide] | 50 to 200 nM
13 | Cc1ccc2c(N)c(C(=O)N[C@H]3CCc4nc(N5C[C@H](N)[C@@]6(C5)OCC[C@@H]6C)ccc4C3)sc2n1 [Example 509, 3-amino-N-[(6S)-2-[(4S,5R,9S)-9-amino-4-methyl-1-oxa-7-azaspiro[4.4]nonan-7-yl]-5,6,7,8-tetrahydroquinolin-6-yl]-6-methylthieno[2,3-b]pyridine-2-carboxamide] | 50 to 200 nM

Same assay, conditions: biochemical IC50 range, Ubiquitin-Rhodamine 110 assay, read-out: USP28 A-1(a)

Row | Compound | IC50
14 | COC1CCCN(c2cc(F)c3c(c2)OCC(NC(=O)c2sc4nc(C)ccc4c2N)C3)CC1N [Example 690, 3-amino-N-[(3R)-7-[(3S,4S)-3-amino-4-methoxyazcpan-1-yl]-5-fluoro-3,4-dihydro-2H-1-benzopyran-3-yl]-6-methylthieno[2,3-b]pyridine-2-carboxamide] | 1 to 50 nM
15 | Cc1ccc2c(N)c(C(=O)N[C@H]3COc4nc(N5C[C@@H](CF)[C@@H](N)C5)ccc4C3)sc2n1 [Example 539, 3-amino-N-[(3R)-7-[(3R,4R)-3-amino-4-(fluoromethyl)pyrrolidin-1-yl]-2H,3H,4H-pyrano[2,3-b]pyridin-3-yl]-6-methylthieno[2,3-b]pyridine-2-carboxamide] | 50 to 200 nM
16 | CN[C@H]1CN(c2ccc3c(c2)OC[C@H](NC(=O)c2sc4nc(C)ccc4c2N)C3)C[C@H]1COC [Example 679, 3-amino-N-[(3R)-7-[(3R,4R)-3-(methoxymethyl)-4-(methylamino)pyrrolidin-1-yl]-3,4-dihydro-2H-1-benzopyran-3-yl]-6-methylthieno[2,3-b]pyridine-2-carboxamide] | 1 to 50 nM
17 | Cc1ccc2c(N)c(C(=O)NC3COc4cc(N5CC6CCNCC65)cc(F)c4C3)sc2n1 [Example 664, 3-amino-N-[(3R)-7-[(1S,6R)-3,8-diazabicyclo[4.2.0]octan-8-yl]-5-fluoro-3,4-dihydro-2H-1-benzopyran-3-yl]-6-mcthylthicno[2,3-b]pyridinc-2-carboxamide] | 1 to 50 nM
18 | CO[C@@H]1CCCN(c2cc(F)c3c(c2)OC[C@H](NC(=O)c2sc4nc(C)ccc4c2N)C3)C[C@H]1N [Example 689, 3-amino-N-[(3R)-7-[(3R,4R)-3-amino-4-methoxyazepan-1-yl]-5-fluoro-3,4-dihydro-2H-1-benzopyran-3-yl]-6-methylthieno[2,3-b]pyridine-2-carboxamide] | 1 to 50 nM
19 | Cc1ccc2c(N)c(C(=O)N[C@H]3COc4cc(N5C[C@@H](N)[C@]6(CCCCO6)C5)ccc4C3)sc2n1 [Example 611-2, 3-amino-N-[(3R)-7-[(4R,5S)-4-amino-6-oxa-2-azaspiro[4.5]decan-2-yl]-3,4-dihydro-2H-1-benzopyran-3-yl]-6-methylthieno[2,3-b]pyridine-2-carboxamide] | 1 to 50 nM
20 | Cc1ccc2c(N)c(C(=O)N[C@H]3COc4cc(OC[C@@H]5CNC[C@H]5C(F)(F)F)ccc4C3)sc2n1 [Example 687, 3-amino-6-methyl-N-[(3R)-7-{[(3S,4S)-4-(trifluoromethyl)pyrrolidin-3-yl]methoxy}-3,4-dihydro-2H-1-benzopyran-3-yl]thieno[2,3-b]pyridine-2-carboxamide] | 1 to 50 nM
21 | Cc1ccc2c(N)c(C(=O)N[C@H]3COc4cc(N5CC[C@@]6(CCCN6)C5)cc(F)c4C3)sc2n1 [Example 684, 3-amino-N-[(3R)-7-[(5S)-1,7-diazaspiro[4.4]nonan-7-yl]-5-fluoro-3,4-dihydro-2H-1-benzopyran-3-yl]-6-methylthieno [2,3-b]pyridine-2-carboxamide] | 1 to 50 nM
22 | CNc1ncc(C(=O)N[C@H]2COc3cc(N4CCNCC4)ccc3C2)c2[nH]ccc12 [Example 674, 4-(methylamino)-N-[(3R)-7-(piperazin-1-yl)-3,4-dihydro-2H-1-benzopyran-3-yl]-1Hpyrrolo[3,2-c]pyridine-7-carboxamide] | 200 to 2000 nM
